Laboratory results published in patent US20040034216A1, “3-Nitrogen-6,7-dioxygen steroids and uses related thereto” (priority 2003, published 2004).
Where a name gives a salt, the structure may show the parent alone. Read-outs that look alike come from different tables or passages of the source.

Assays:
Jurkat clone E6.1 cells = test: Antigen-induced calcium flux in anti-CD3 stimulated Jurkat cells (Fura 2AM); assay type: cell-based; conditions: anti-CD3 mAb stimulated Jurkat clone E6.1 cells; for inhibition at 20 µM: Homo sapiens
Description: Elevation of cytoplasmic calcium concentration is a common and crucial event which follows the activation of many types of cell surface receptors. Increases in intracellular calcium that occur following agonist activation of inositol lipid hydrolysis are the results of calcium release from the endoplasmic reticulum and the influx of calcium through the plasma membrane. Increases in cytosolic calcium concentration are involved in many important cellular responses in the inflammatory process including adhesion, motility, gene expression, proliferation, and degranulation. Changes in intracellular calcium concentrations can affect both short and long term cellular responses. An assay method to evaluate a test compound's impact on calcium flux is provided as follows.
The resulting supernatants are discarded and each pellet is washed in 10 mL HBSS. Cell suspensions are accumulated and centrifuged for 5 minutes at 900 RPM to form a cell pellet. The resulting supernatant is discarded and the pellet is resuspended in HBSS at 1×10^7cells/mL. The cell suspension is transferred to a 20 mm petri dish and incubated at 37° C., 5% CO2 for 20 minutes.
One volume of Fura 2AM is mixed to one volume of detergent Pluronic F127. Cells are labeled with 4 μL of probe solution to each mL of cell suspension. The petri dish is wrapped in aluminum foil to protect from light and placed on a plate shaker for 30 minutes at room temperature.
The following steps are done in the laminar flow hood with the fluorescent lights turned off. The petri dish is removed from the shaker and the labeled cell suspension is transferred to a 15 mL conical tube and washed twice with HBSS as above. The cell pellet is resuspended in 12 mL HBSS and left wrapped in foil for 30 minutes at room temperature. The labeled cell suspension is aliquoted (100 μL/well) into a Dynex 96 well white opaque tissue culture plate. […] Selected compounds were tested for dose related activity. Test samples and activator (anti-CD3 mAb at final concentration of 4 μg/mL, PharMingen) are added manually (50 μL), such that the minimum time to acquire the first data point after stimulation is approximately 30 seconds. The calcium influx response to anti-CD3 mAb is measured as an “end point” assay. The entire plate is read in 100 seconds using a kinetic of 1 second per well.
The plate is read before the addition of anti-CD3 to monitor non-specific effect of samples/drugs. Fluorescence emission is measured at 510 nm with excitation alternating between 340 and 380 every second using an excitation/emission filter pair. Data from these dual wavelengths are represented as a ratio of 2 excitations wavelengths. This ratio is independent of intracellular dye and cell concentrations, enabling real comparison between experiments.

[1] = test system: sensitized Brown Norway rats; test: Ovalbumin-induced accumulation of inflammatory cells in lung lavage fluid (allergen-induced lung inflammation); assay type: in vivo, rat; conditions: p.o., corn oil, lung lavage fluid; for % inhibition of eosinophils: 5 mg/kg/day for 4 days, relative to control animals
Experimental: The ability of a compound to inhibit the allergen-induced accumulation of inflammatory cells such as eosinophils and neutrophils in the lavage fluid obtained from sensitized animals is indicative of that compound's anti-asthma activity. […] The test is conducted as follows.
Male Brown Norway rats are sensitized to ovalbumin by single intraperitoneal injection of 1 mg ovalbumin adsorbed to 100 mg […] (alum) in 1 ml sterile saline (saline control rats receive only sterile saline) on day 1, and allowed to sensitize until day 21. […] Rats are challenged with 0.5% ovalbumin in saline generated using a Devillbis nebulizer for 60 min on day 21.
Forty-eight hrs after challenge, animals are sacrificed with an overdose of intraperitoneally-delivered sodium pentobarbitol and the lungs are lavaged with cold 2×7 ml phosphate buffered saline. The recovered lavage fluid is placed on ice. The bronchoalveolar lavage fluid is centrifuged and the supernatant removed. The pellet is resuspended in phosphate buffered saline at 4° C. Cytospins are prepared and stained for differentiation and enumeration of cell types.
Test compound was administered in 300 μl corn oil (Tables 7 and 8) or water (Table 9), which were used as vehicles. Control animals received 300 μl corn oil or water alone, i.e., no drug. […] A negative value in Table 7, 8, or 9 indicates an exacerbation of the effect over the control animal.

[2] = test system: Rat Mast Cell Line (RBL-2H3); test: Antigen-induced release of hexosaminidase from a rat mast cell line (RBL-2H3); assay type: cell-based; conditions: Rattus norvegicus, RBL-2H3, inhibition of antigen (DNP-HSA)-induced hexosaminidase release, tested at 0.3, 3, 10 and 30 μM, read-out: Hex IC50
Experimental: The anti-allergic effects of a compound of the present invention was evaluated by measuring its effect on antigen-induced secretion of hexosaminidase from a passively sensitized rat mast cell line. The ability of a test compound to inhibit the release of mast cell granule contents, e.g., histamine and hexosaminidase, is indicative of the anti-allergy and/or anti-asthma activity of the compound. Hexosaminidase is released from the mast cell granule along with histamine and other mediators during antigen challenge. The test is performed as follows.
RBL-2H3 cells are grown in culture and passively sensitized for 1 hour at 37° C. to dinitrophenol (DNP) using anti-human-DNP (IgE). Cells are incubated with test compound for 30 minutes at 37° C. and stimulated with 0.5 μg/ml DNP-HSA (antigen) for 30 minutes. Aliquots of the supernatant are removed and used to measure the amount of hexosaminidase released during challenge with the antigen. The amount of hexosaminidase present in the supernatant is determined colorimetrically by monitoring the enzymatic metabolism of p-nitrophenyl-N-acetyl-β-D-glucosaminide (p-NAG) over a period of 60 minutes at 405 nm. The effect of each test compound is determined as a percentage of the antigen-induced response (minus background release) obtained in the presence of DMSO alone. These values are used to determine the degrees of inhibition of antigen-induced hexosaminidase release from the cells.

[3] = Jurkat, read-out: Calcium (% inhibition at 20 μM), 20 μM

SMILES: CCC1(C)CCC2=C1CCC1C2C(O)C(O)C2CC(Nc3ccccc3)CCC21C.Cl (mixture of isomers) [Compound 144]
- Calcium (% inhibition at 20 μM) (Jurkat clone E6.1 cells; 20 μM): 13.0%

SMILES: CCC1(C)CCC2=C1CCC1C2C(O)C(O)C2CC(Nc3cccc(C(F)(F)F)c3)CCC21C.Cl (mixture of isomers) [Compound 145]
- Calcium (% inhibition at 20 μM) (Jurkat clone E6.1 cells; 20 μM): −0.2%

SMILES: CC=C1CCC2C3C(CC[C@]12C)[C@@]1(C)CCC(N)CC1[C@@H](O)[C@@H]3O (stereo partly shown) [Compound 49]
- % inhibition of eosinophils [1]: 52%

SMILES: C=C1CCC2C3C(CC[C@]12C)[C@@]1(C)CCC(N)CC1[C@@H](O)[C@@H]3O (stereo partly shown) [Compound 53]
- % inhibition of eosinophils [1]: 24%

SMILES: C=C1CCC2C3C(CC[C@]12C)[C@@]1(C)CCC(N)CC1[C@@H](O)[C@@H]3O (stereo partly shown) [Compound 54]
- IC50 [2]: 16.1 µM

SMILES: CC(F)=C1CCC2C3C(CC[C@]12C)[C@@]1(C)CCC(N)CC1[C@@H](O)[C@@H]3O (stereo partly shown) [Compound 64]
- inhibition at 20 µM (Jurkat clone E6.1 cells; [3]): 6.7%
- % inhibition of eosinophils [1]: 62%
- IC50 [2]: 14.4 µM

SMILES: COC(=O)C=C1CCC2C3C(CC[C@]12C)[C@@]1(C)CCC(N)CC1[C@@H](O)[C@@H]3O (stereo partly shown) [Compound 69]
- inhibition at 20 µM (Jurkat clone E6.1 cells; [3]): 11.2%
- IC50 [2]: 21.2 µM

SMILES: C[C@]12CC[C@@H](N)CC1[C@@H](O)[C@H](O)[C@@H]1[C@@H]2CC[C@]2(C)C(=O)CC[C@@H]12 (stereo partly drawn) [Compound 70, 3α-amino-6α,7β-dihydroxyandrostan-17-one acetic acid salt]
- inhibition at 20 µM (Jurkat clone E6.1 cells; read-out: Calcium (% inhibition at 20 μM), 20 μM): 7%

SMILES: C[C@]12CCC3C(C1CCC2O)[C@@H](O)[C@H](O)C1CC(N)CC[C@]31C (stereo partly shown) [Compound 72]
- inhibition at 20 µM (Jurkat clone E6.1 cells; [3]): 10.3%

SMILES: C=C1CCC2C3C(CC[C@]12C)[C@@]1(C)CCC(N)CC1[C@@H](OC)[C@@H]3OC (stereo partly shown) [Compound 78]
- inhibition at 20 µM (Jurkat clone E6.1 cells; [3]): 5.3%
- IC50 [2]: 20.1 µM

SMILES: CC(F)=C1CCC2C3C(CC[C@]12C)[C@@]1(C)CCC(N)CC1[C@@H](O)[C@@H]3O (stereo partly shown) [Compound 95]
- % inhibition of eosinophils [1]: 14%

SMILES: CCC1CCC2C3C(CC[C@]12C)[C@@]1(C)CCC(N)CC1[C@@H](O)[C@@H]3O (stereo partly shown) [Compound 96]
- inhibition at 20 µM (Jurkat clone E6.1 cells; [3]): 47.9%
- % inhibition of eosinophils [1]: −9%
- IC50 [2]: 7.8 µM

SMILES: CCC1CCC2C3C(CC[C@]12C)[C@@]1(C)CCC(N)CC1[C@@H](O)[C@@H]3O (stereo partly shown) [Compound 97]
- % inhibition of eosinophils [1]: 40%

SMILES: C=C1CCC2C3C(CC[C@]12C)[C@@]1(C)CC[C@@H](NCc2ccc(C(C)C)cc2)CC1[C@@H](O)[C@@H]3O (stereo partly shown) [Compound 100]
- inhibition at 20 µM (Jurkat clone E6.1 cells; [3]): 33.2%
- IC50 [2]: 18.2 µM

SMILES: C=C1CCC2C3C(O)C(O)C4CC(NCc5cccc(C(F)(F)F)c5)CCC4(C)C3CCC12C.CC(=O)O (stereo not shown) [Compound 102]
- Calcium (% inhibition at 20 μM) (Jurkat clone E6.1 cells; 20 μM): 9.5%

SMILES: C=C1CCC2C3C(O)C(O)C4CC(NCc5cccc([N+](=O)[O-])c5)CCC4(C)C3CCC12C (stereo not shown) [Compound 106]
- Calcium (% inhibition at 20 μM) (Jurkat clone E6.1 cells; 20 μM): 8.1%

SMILES: C=C1CCC2C3C(O)C(O)C4CC(NCc5cccnc5)CCC4(C)C3CCC12C.Cl.Cl (stereo not shown) [Compound 107]
- % inhibition of lymphocytes ([1]; 1 mg/kg/day for 4 days): −28%
- % inhibition of neutrophils ([1]; 1 mg/kg/day for 4 days): 23%
